Assay results: ChEMBL document CHEMBL1201862, “PubChem BioAssay data set” (2004)
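Tested at 5 concentrations; 48 h exposure; 96-well plates; endpoints linearly interpolated, else capped at highest concentration. Abbreviation: GI50, concentration required for 50% inhibition of growth.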 Activity calls are given as the source filed them. No stated cut-off is given here; in the data, active = GI50 up to about 1.1 µM and inactive = higher.

Experiments:
Assay in all cases: growth of human tumour cells (NCI), 48 h
ACHN = test system: ACHN
EKVX = test system: EKVX
A549 = test system: A549
UACC-257 = test system: UACC-257
786-0 = test system: 786-0
NCI-H226 = test system: NCI-H226
HL-60 = test system: HL-60
RPMI-8226 = test system: RPMI-8226
SNB-19 = test system: SNB-19
SR = test system: SR
M14 = test system: M14
NCI-H460 = test system: NCI-H460
SF-539 = test system: SF-539
K562 = test system: K562
IGROV-1 = test system: IGROV-1
OVCAR-4 = test system: OVCAR-4
DU-145 = test system: DU-145
MDA-MB-435 = test system: MDA-MB-435
HT-29 = test system: HT-29
HCC 2998 = test system: HCC 2998
BT-549 = test system: BT-549
HOP-62 = test system: HOP-62
SN12C = test system: SN12C
SW-620 = test system: SW-620
HCT-15 = test system: HCT-15
SNB-75 = test system: SNB-75
SK-MEL-5 = test system: SK-MEL-5
U-251 = test system: U-251
NCI/ADR-RES = test system: NCI/ADR-RES
T47D = test system: T47D
KM12 = test system: KM12
COLO 205 = test system: COLO 205
OVCAR-5 = test system: OVCAR-5
OVCAR-8 = test system: OVCAR-8
Malme-3M = test system: Malme-3M
TK-10 = test system: TK-10
CAKI-1 = test system: CAKI-1
MCF7 = test system: MCF7
MOLT-4 = test system: MOLT-4
OVCAR-3 = test system: OVCAR-3
UO-31 = test system: UO-31
NCI-H23 = test system: NCI-H23
SK-MEL-28 = test system: SK-MEL-28
SK-OV-3 = test system: SK-OV-3
SF-295 = test system: SF-295
MDA-N = test system: MDA-N
Hs-578T = test system: Hs-578T
UACC-62 = test system: UACC-62
LOX IMVI = test system: LOX IMVI
MDA-MB-231 = test system: MDA-MB-231
A498 = test system: A498
PC-3 = test system: PC-3
SK-MEL-2 = test system: SK-MEL-2
SF-268 = test system: SF-268
HCT-116 = test system: HCT-116
HOP-92 = test system: HOP-92
RXF 393 = test system: RXF 393
CCRF-CEM = test system: CCRF-CEM
NCI-H522 = test system: NCI-H522

Measured: GI50

Cn1c2ccccc2c(=O)c2cccc(C(=O)NC(CCC(N)=O)C(=O)O)c21 (stereo unspecified)
active: HL-60 0.0585 µM
inactive: ACHN > 100 µM | EKVX > 100 µM | A549 > 100 µM | UACC-257 > 100 µM | 786-0 > 100 µM | NCI-H226 > 100 µM | RPMI-8226 > 100 µM | SNB-19 > 100 µM | SR 62.1 µM | M14 > 100 µM | NCI-H460 > 100 µM | SF-539 > 100 µM | K562 > 100 µM | IGROV-1 > 100 µM | OVCAR-4 > 100 µM | DU-145 > 100 µM | MDA-MB-435 > 100 µM | HT-29 > 100 µM | HCC 2998 > 100 µM | BT-549 > 100 µM | HOP-62 > 100 µM | SN12C > 100 µM | SW-620 > 100 µM | SNB-75 > 100 µM | SK-MEL-5 > 100 µM | U-251 > 100 µM | NCI/ADR-RES 60.3 µM | T47D > 100 µM | KM12 > 100 µM | COLO 205 > 100 µM | OVCAR-5 > 100 µM | OVCAR-8 > 100 µM | Malme-3M > 100 µM | TK-10 > 100 µM | CAKI-1 > 100 µM | MCF7 > 100 µM | MOLT-4 > 100 µM | OVCAR-3 > 100 µM | UO-31 > 10 µM | NCI-H23 > 100 µM | SK-MEL-28 > 100 µM | SK-OV-3 > 100 µM | SF-295 > 100 µM | MDA-N > 100 µM | Hs-578T > 100 µM | UACC-62 > 100 µM | LOX IMVI > 100 µM | MDA-MB-231 > 100 µM | A498 > 100 µM | PC-3 > 100 µM | SK-MEL-2 > 100 µM | SF-268 > 100 µM | HCT-116 > 100 µM
> 100 µM: HCT-15

O=c1cc(-c2cc(O)c(O)c(-c3c(O)cc4oc(-c5ccc(O)c(O)c5)cc(=O)c4c3O)c2)oc2cc(O)cc(O)c12
inactive: HOP-92 > 25 µM | EKVX > 25 µM | RXF 393 > 25 µM | A549 > 25 µM | CCRF-CEM > 25 µM | UACC-257 > 25 µM | NCI-H226 > 25 µM | HL-60 > 25 µM | SR > 25 µM | M14 > 25 µM | NCI-H460 > 25 µM | SF-539 > 25 µM | K562 > 25 µM | IGROV-1 > 25 µM | OVCAR-4 > 25 µM | DU-145 > 25 µM | MDA-MB-435 > 25 µM | HT-29 > 25 µM | HCC 2998 > 25 µM | BT-549 > 25 µM | HOP-62 > 25 µM | SN12C > 25 µM | SW-620 > 25 µM | SNB-75 24.9 µM | SK-MEL-5 > 25 µM | U-251 19.2 µM | NCI/ADR-RES > 25 µM | T47D 11.3 µM | COLO 205 > 25 µM | OVCAR-5 > 25 µM | OVCAR-8 > 25 µM | Malme-3M > 25 µM | TK-10 > 25 µM | CAKI-1 > 25 µM | MCF7 > 25 µM | MOLT-4 > 25 µM | OVCAR-3 > 25 µM | UO-31 > 25 µM | NCI-H23 > 25 µM | SK-MEL-28 > 25 µM | SK-OV-3 > 25 µM | SF-295 > 25 µM | MDA-N > 25 µM | Hs-578T > 25 µM | UACC-62 > 25 µM | LOX IMVI > 25 µM | MDA-MB-231 > 25 µM | A498 > 25 µM | PC-3 > 25 µM | SK-MEL-2 > 25 µM | SF-268 > 25 µM | HCT-116 17.5 µM
> 25 µM: HCT-15

CC(C)c1c(P(=O)(c2ccccc2)c2ccccc2)n(C)c2ccccc12
inactive: HOP-92 > 100 µM | NCI-H522 23.4 µM | ACHN 35.2 µM | EKVX > 100 µM | A549 51.6 µM | CCRF-CEM 59 µM | UACC-257 90.6 µM | 786-0 > 100 µM | NCI-H226 52.8 µM | HL-60 28.1 µM | RPMI-8226 56.6 µM | SNB-19 95.9 µM | SR 49.9 µM | M14 64.4 µM | NCI-H460 66.8 µM | SF-539 > 100 µM | K562 37.8 µM | OVCAR-4 71.4 µM | DU-145 80.2 µM | MDA-MB-435 45.5 µM | HT-29 53.8 µM | HCC 2998 > 100 µM | BT-549 > 100 µM | HOP-62 > 100 µM | SN12C > 100 µM | SW-620 > 100 µM | SNB-75 95.3 µM | U-251 97.3 µM | NCI/ADR-RES 43.1 µM | T47D 77.1 µM | KM12 51.8 µM | COLO 205 32.4 µM | OVCAR-5 54.7 µM | OVCAR-8 89.9 µM | Malme-3M > 100 µM | TK-10 > 100 µM | MCF7 > 100 µM | MOLT-4 34.8 µM | OVCAR-3 26.4 µM | UO-31 31.8 µM | NCI-H23 40.5 µM | SK-MEL-28 76.7 µM | SF-295 45.6 µM | MDA-N 56.1 µM | Hs-578T > 100 µM | LOX IMVI > 100 µM | MDA-MB-231 > 100 µM | A498 > 100 µM | PC-3 58.7 µM | SK-MEL-2 88.3 µM | SF-268 51.9 µM | HCT-116 35.9 µM
72.3 µM: HCT-15
